Experimental data published in US8524911B2, “3-arylamino pyridine derivatives” (Merck Serono SA, priority 2004, dated 2013).

Key:
human MEK1 = human MEK1 (Homo sapiens, UniProt Q02750); test: MEK-1 Enzyme Assay (LANCE-HTRF); assay type: biochemical; conditions: 100 nM MEK1, 15 μM ATP, 300 nM ERK2, two hours; read-out: MEK inhibition
Experimental: Assay 1: MEK-1 Enzyme Assay (LANCE-HTRF)
The activity of the compounds of the present invitation may be determined by the following procedure; Inhibition of human MEK1 kinase activity was monitored with a homogenous, fluorescence based assay. The assay uses time resolved fluorescence resonance energy transfer to probe for phosphorylation of ERK1 by MEK1. The assay is carried out in low volume 96 well microtiterplates. […] After two hours, 5 nM Europium-anti-PY20 (Perkin Elmer) and 50 nM Anti-GST-Allophycocyanin (CisBio) in buffer containing 50 mM EDTA and 0.05% BSA are added and the reaction incubated for one hour in the dark. Time-resolved fluorescence is measured using a LJL-Analyst (Molecular Devices) with an excitation wavelength of 340 nm and an emission wavelength of 665 nm. The final concentration of DMSO is 2%.

Murine colon C26 cells = test: Tumor cell proliferation assay (ATP Lite), C26; assay type: cell-based; conditions: Mus musculus, 96 h, 4 days
Experimental: (§1) Assay 2: Tumor Cell Proliferation Assays (ATP Lite)
(§2) Murine colon C26, human melanoma A375 and MeI5 or human pancreatic MiaPaCa-2 cells were plated in 96 well Corning white plates (1500 cells/well for C26, and 2000 cells/well for A375, and MiaPaCa-2) and cultured overnight at 37° C. in 5% CO2. Inhibitors were serially diluted in 100% DMSO and subsequently added to cells to reach a final concentration of 0.25% DMSO. The cells were incubated for 4 days in the presence of test compounds in cell growth media (DMEM with 10% fetal bovine serum, 2 mM glutamine for C26, and MiaPaCa-2, and RPMI with 10% fetal bovine serum, 2 mM glutamine for A375). Cell proliferation was quantitated using the ATP lite cell proliferation kit (Packard). Columns 4-6 show the concentration of compounds required to induce 50% cell death (IC50 in μM) of […]. With “+” meaning 3 μM<IC50≦10 μM and “++” IC50≦3 μM and “n.d.” means not determined. Few compounds were also tested on human melanoma cell MeI5.

[1] = system: human melanoma A375 cells; test: Tumor cell proliferation assay (ATP Lite), A375; assay type: cell-based; conditions: A-375, 96 h, 4 days
Experimental: as §1, §2

[2] = system: human pancreatic MiaPaCa-2 cells; test: Tumor cell proliferation assay (ATP Lite), MiaPaCa-2; assay type: cell-based; conditions: MIA PaCa-2, 96 h, 4 days
Experimental: as §1, §2

human MEK1, sequence (Q02750 whole entry): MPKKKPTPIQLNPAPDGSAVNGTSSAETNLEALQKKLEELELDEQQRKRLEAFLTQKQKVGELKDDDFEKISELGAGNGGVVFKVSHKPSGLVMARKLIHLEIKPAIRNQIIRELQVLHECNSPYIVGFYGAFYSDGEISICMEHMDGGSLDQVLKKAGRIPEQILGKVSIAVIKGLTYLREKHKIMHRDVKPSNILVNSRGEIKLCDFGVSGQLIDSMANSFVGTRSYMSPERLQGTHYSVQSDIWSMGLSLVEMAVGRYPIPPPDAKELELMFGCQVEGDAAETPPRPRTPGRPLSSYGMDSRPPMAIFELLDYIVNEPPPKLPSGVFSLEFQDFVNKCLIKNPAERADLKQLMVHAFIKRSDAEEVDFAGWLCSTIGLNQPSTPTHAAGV

| Compound | IC50 (human MEK1) [nM] | IC50 (Murine colon C26 cells) [µM] | IC50 [1] [µM] | IC50 [2] [µM] |
| --- | --- | --- | --- | --- |
| O=C(NOCc1ccccc1)c1ccncc1Nc1ccc(I)cc1Cl [Example 81, N-Benzyloxy-3-(2-chloro-4-iodo-phenylamino)-isonicotinamide] | < 1000 | 3 to 10 | ≤ 3 | 3 to 10 |
| O=C(NOC[C@H](O)CO)c1ccncc1Nc1ccc(I)cc1F [Example 7, N-{[(2R)-2,3-dihydroxypropyl]oxy}-3-[(2-fluoro-4-iodophenyl)-amino]isonicotin-amide] | < 1000 | ≤ 3 | ≤ 3 | ≤ 3 |
| O=C(NNc1ccccc1)c1ccncc1Nc1ccc(I)cc1F [Example 32, 3-[(2-fluoro-4-iodophenyl)amino]-N′-phenylisonicotinohydrazide] | < 1000 | ≤ 3 | ≤ 3 | ≤ 3 |
| Cc1ccc(CC(=O)NC2CCN(C(=O)c3ccncc3Nc3ccc(I)cc3F)CC2)cc1 [Example 86, N-(1-{3-[(2-fluoro-4-iodophenyl)amino]isonicotinoyl}piperidin-4-yl)-2-(4-methylphenyl)acetamide] | < 1000 | 3 to 10 | ≤ 3 | 3 to 10 |
| O=C(NCCCCO)c1ccncc1Nc1ccc(I)cc1F [Example 39, 3-[(2-fluoro-4-iodophenyl)amino]-N-(4-hydroxybutyl)-isonicotinamide] | < 1000 | ≤ 3 | ≤ 3 | ≤ 3 |
| O=C(NCc1ccccc1)c1ccncc1Nc1ccc(I)cc1F [Example 21, N-benzyl-3-[(2-fluoro-4-iodophenyl)amino]isonicotinamide] | < 1000 | 3 to 10 | ≤ 3 | 3 to 10 |
| Cc1ccc(CCNC(=O)c2ccncc2Nc2ccc(I)cc2F)cc1 [Example 85, 3-[(2-fluoro-4-iodophenyl)amino]-N-[2-(4-methylphenyl)-ethyl]isonicotinamide] | < 1000 | 3 to 10 | ≤ 3 | 3 to 10 |
| NC(=O)c1ccncc1Nc1ccc(I)cc1Cl [Example 11, 3-[(2-chloro-4-iodophenyl)amino]isonicotinamide] | < 1000 | ≤ 3 | ≤ 3 | ≤ 3 |
| O=C(O)c1ccc(CCNC(=O)c2ccncc2Nc2ccc(I)cc2F)cc1 [Example 102, 4-[2-({3-[(2-fluoro-4-iodophenyl)amino]isonicotinoyl}-amino)ethyl]benzoic acid] | < 1000 | 3 to 10 | ≤ 3 | 3 to 10 |
| O=C(NC1CCC1)c1ccncc1Nc1ccc(I)cc1F [Example 58, N-cyclobutyl-3-[(2-fluoro-4-iodophenyl)amino]isonicotinamide] | < 1000 | ≤ 3 | ≤ 3 | ≤ 3 |
| CNC(=O)c1ccncc1Nc1ccc(I)cc1Cl [Example 22, 3-[(2-chloro-4-iodophenyl)amino]-N-methylisonicotinamide] | < 1000 | ≤ 3 | ≤ 3 | ≤ 3 |
| NNC(=O)c1ccncc1Nc1ccc(I)cc1F [Example 51, 3-[(2-fluoro-4-iodophenyl)amino]isonicotinohydrazide] | < 1000 | 3 to 10 | ≤ 3 | ≤ 3 |
| CCNC(=O)c1ccncc1Nc1ccc(I)cc1F [Example 18, N-ethyl-3-[(2-fluoro-4-iodophenyl)amino]isonicotinamide] | < 1000 | ≤ 3 | ≤ 3 | ≤ 3 |
| CC(C)(C)OC(=O)NC1CCN(C(=O)c2ccncc2Nc2ccc(I)cc2F)CC1 [Example 34, tert-butyl(1-{3-[(2-fluoro-4-iodophenyl)amino]isonicotinoyl}-piperidin-4-yl)carbamate] | < 1000 | 3 to 10 | ≤ 3 | 3 to 10 |
| O=C(O)c1ccc(CNC(=O)c2ccncc2Nc2ccc(I)cc2F)cc1 [Example 46, 4-[({3-[(2-fluoro-4-iodophenyl)amino]isonicotinoyl}-amino)methyl]benzoic acid] | < 1000 | 3 to 10 | ≤ 3 | 3 to 10 |

Second part, the molecule after the results:

| IC50 (human MEK1) [nM] | IC50 (Murine colon C26 cells) [µM] | IC50 [1] [µM] | IC50 [2] [µM] | Compound |
| --- | --- | --- | --- | --- |
| < 1000 | 3 to 10 | ≤ 3 | 3 to 10 | C=CCONC(=O)c1ccncc1Nc1ccc(I)cc1Cl [Example 77, N-allyloxy-3-(2-chloro-4-iodo-phenylamino)-isonicotinamide] |
| < 1000 | 3 to 10 | 3 to 10 | 3 to 10 | O=C(NCCN1CCOCC1)c1cc(Br)ncc1Nc1ccc(I)cc1F [Example 88, 2-Bromo-5-(2-fluoro-4-iodo-phenylamino)-N-(2-morpholin-4-yl-ethyl)-isonicotinamide] |
| < 1000 | ≤ 3 | ≤ 3 | ≤ 3 | O=C(NCC(O)COc1ccccc1)c1ccncc1Nc1ccc(I)cc1F (centres unmarked) [Example 83] |
| < 1000 | 3 to 10 | ≤ 3 | 3 to 10 | CC(C)(C)OC(=O)NNC(=O)c1ccncc1Nc1ccc(I)cc1F [Example 45, tert-butyl 2-{3-[(2-fluoro-4-iodophenyl)amino]-isonicotinoyl}hydrazine-carboxylate] |
| < 1000 | 3 to 10 | ≤ 3 | ≤ 3 | O=C(NN1CCCCC1)c1ccncc1Nc1ccc(I)cc1F [Example 19, 3-[(2-fluoro-4-iodophenyl)amino]-N-piperidin-1-ylisonicotinamide] |
| < 1000 | ≤ 3 | ≤ 3 | ≤ 3 | O=C(NCCCN1CCCC1=O)c1ccncc1Nc1ccc(I)cc1F [Example 30, 3-[(2-fluoro-4-iodophenyl)amino]-N-[3-(2-oxopyrrolidin-1-yl)propyl]isonicotinamide] |
| < 1000 | ≤ 3 | ≤ 3 | ≤ 3 | COCCNC(=O)c1ccncc1Nc1ccc(I)cc1F [Example 16, 3-(2-Fluoro-4-iodo-phenylamino)-N-(2-methoxy-ethyl)-isonicotinamide] |
| < 1000 | 3 to 10 | ≤ 3 | 3 to 10 | Cc1nccc(C(N)=O)c1Nc1ccc(I)cc1F [Example 100, 3-(2-Fluoro-4-iodo-phenylamino)-2-methyl-isonicotinamide] |
| < 1000 | ≤ 3 | ≤ 3 | ≤ 3 | O=C(NCC1CC1)c1ccncc1Nc1ccc(I)cc1F [Example 53, N-(cyclopropylmethyl)-3-[(2-fluoro-4-iodophenyl)amino]-isonicotinamide] |
| < 1000 | 3 to 10 | ≤ 3 | 3 to 10 | COc1cccc(C(=O)NNC(=O)c2ccncc2Nc2ccc(I)cc2F)c1 [Example 55, 3-[(2-fluoro-4-iodophenyl)amino]-N′-(3-methoxybenzoyl)-isonicotinohydrazide] |
| < 1000 | ≤ 3 | ≤ 3 | ≤ 3 | O=C(NCCCO)c1cc(Br)ncc1Nc1ccc(I)cc1F [Example 70, 2-Bromo-5-(2-fluoro-4-iodo-phenylamino)-N-(3-hydroxy-propyl)-isonicotinamide] |
